In data set [1] the test system is H. influenzae 432 (Haemophilus influenzae ATCC 49247). Briefly: MIC by broth microdilution, H. influenzae 432. Conditions: ATCC49247, DRCC 432, broth microdilution in MHB, read-out: Antimicrobial Screening (MIC) H. influenzae 432. The class given is cell-based. The method, then: (§1) Minimum Inhibiton Concentrations (MICs) were determined by broth microdilution technique as per the guidelines prescribed in the fifth edition of Approved Standards, NCCLS document M7-A5 Vol 20-No 2, 2000 Villinova, Pa.
(§2) Initial stock solution of the test compound was prepared in DMSO. Subsequent two fold dilutions were carried out in sterile Mueller Hinton Broth (Difco) (MHB).
(§3) Frozen cultures stocks were inoculated into 50 ml sterile MHB in 250 ml Erlyn Meyer flasks.
(§4) Composition of MHB is as follows:
(§5) Flasks were incubated for 4 to 5 h at 35° C. on a rotary shaker at 150 rpm. Inoculum was prepared by diluting the culture in sterile MHB to obtain a turbidity of 0.5 McFarland standard. This corresponds to 1-2×10^8 CFU/ml. The stock was further diluted in sterile broth to obtain 1-2×10^6 CFU/ml. 50 μl of the above diluted inoculum was added from 1-10 wells. The plates were incubated overnight at 37° C.
On the technique in general: Dilution methods test growth across graded concentrations, often in twofold steps.

The test system of data set [2] is H. influenzae 433 (Haemophilus influenzae ATCC 49766). Briefly: MIC by broth microdilution, H. influenzae 433. Format: cell-based. Conditions: ATCC49766, DRCC 433, broth microdilution in MHB, read-out: Antimicrobial Screening (MIC) H. influenzae 433. The method, then:
as §1, §2, §3, §4, §5

Data set [3] concerns H. influenzae 529 (Haemophilus influenzae ATCC 9006). Nature of the data set: MIC by broth microdilution, H. influenzae 529. Format: cell-based. Conditions: ATCC9006, DRCC 529, broth microdilution in MHB, read-out: Antimicrobial Screening (MIC) H. influenzae 529. The method, then:
as §1, §2, §3, §4, §5

For the next data set, the system named is Salmorella TA 97. Briefly: MIC by broth microdilution, Salmorella TA 97. The class given is cell-based. As to conditions: read-out: Antimicrobial Screening (MIC) Salmorella TA 97. The method, then: as §1, §2, §3, §4, §5
Data set [4] has as its system Enterococcus sp 153 R (Enterococcus faecalis NCTC 12201). Briefly: MIC by broth microdilution, Enterococcus sp 153 R. Format: cell-based. As to conditions: NCTC12201, DRCC 153, R, broth microdilution in MHB, read-out: Antimicrobial Screening (MIC) Enterococcus sp 153 R. The procedure: as §1, §2, §3, §4, §5
Data set [5] has as its system M. catarrhalis 300 (Moraxella catarrhalis ATCC 25238). Briefly: MIC by broth microdilution, M. catarrhalis 300. Format: cell-based. As to conditions: ATCC25238, DRCC 300, broth microdilution in MHB, read-out: Antimicrobial Screening (MIC) M. catarrhalis 300. The procedure: as §1, §2, §3, §4, §5
The subject of data set [6] is Enterococcus sp 154 R (Enterococcus faecium NCTC 12202). Nature of the data set: MIC by broth microdilution, Enterococcus sp 154 R. The class given is cell-based. Conditions: NCTC12202, DRCC 154, R, broth microdilution in MHB, read-out: Antimicrobial Screening (MIC) Enterococcus sp 154 R. The procedure: as §1, §2, §3, §4, §5
The next data set relates to Mycobacterium MTCC 006. Briefly: MIC by broth microdilution, Mycobacterium MTCC 006. Format: cell-based. As to conditions: MTCC006, broth microdilution in MHB, read-out: Antimicrobial Screening (MIC) Mycobacterium MTCC 006. The procedure:
as §1, §2, §3, §4, §5

Data set [7] deals with Enterococcus sp 034 S (Enterococcus faecalis ATCC 29212). Briefly: MIC by broth microdilution, Enterococcus sp 034 S. Format: cell-based. Conditions: ATCC29212, DRCC 034, S, broth microdilution in MHB, read-out: Antimicrobial Screening (MIC) Enterococcus sp 034 S. The method, then: as §1, §2, §3, §4, §5
The subject of data set [8] is Staphylococcus aureus 019 MRSA (ATCC 33591). Nature of the data set: MIC by broth microdilution, Staphylococcus aureus 019 MRSA. The class given is cell-based. Conditions: DRCC 019, MRSA, broth microdilution in MHB, read-out: Antimicrobial Screening (MIC) Staphylococcus aureus 019 MRSA. The method, then: as §1, §2, §3, §4, §5
The subject of data set [9] is Staphylococcus aureus 213 Smith S (ATCC 49951). Briefly: MIC by broth microdilution, Staphylococcus aureus 213 Smith S. The class given is cell-based. Conditions: ATCC49951, DRCC 213, Smith S, broth microdilution in MHB, read-out: Antimicrobial Screening (MIC) Staphylococcus aureus 213 Smith S. The method, then:
as §1, §2, §3, §4, §5

The test system of data set [10] is Staphylococcus aureus 035 S (ATCC 29213). Nature of the data set: MIC by broth microdilution, Staphylococcus aureus 035 S. Format: cell-based. Conditions: ATCC29213, DRCC 035, S, broth microdilution in MHB, read-out: Antimicrobial Screening (MIC) Staphylococcus aureus 035 S. The method, then:
as §1, §2, §3, §4, §5

Values after ≈ are worked out from the molar mass of the structure shown.

A word on the melting point: it is the temperature of the solid-liquid transition.

In the case of `CCOC(=S)NC[C@H]1CN(c2cc(F)c(N3CNC(=O)C3)c(F)c2)C(=O)O1` [Example 166], the melting point is 178 to 180 °C. In addition, the MIC in [1] was over 32 µg/mL. Moreover, the MIC in [2] is over 32 µg/mL. In addition, the MIC in data set [3] is over 32 µg/mL. In the data set on Salmorella TA 97, the MIC worked out at 32 µg/mL (≈ 79.9 µM). Also, in [4], the MIC came out at 1 µg/mL (≈ 2.5 µM). Besides, the MIC in data set [5] is 32 µg/mL (≈ 79.9 µM). Further, the MIC in [6] came to 1 µg/mL (≈ 2.5 µM). For the same compound, the MIC in the data set on Mycobacterium MTCC 006 is 32 µg/mL (≈ 79.9 µM). In addition, the MIC in data set [7] turned out to be 1 µg/mL (≈ 2.5 µM). In addition, in data set [8], the MIC stood at 0.5 µg/mL (≈ 1.25 µM). The MIC in data set [9] was 0.5 µg/mL (≈ 1.25 µM). Also, the MIC in data set [10] was 0.5 µg/mL (≈ 1.25 µM).

The compound `CC(C)OC(=S)NC[C@H]1CN(c2cc(F)c(N3CNC(=O)C3)c(F)c2)C(=O)O1` [Example 167] showed a melting point of 176 to 178 °C. For the same compound, in data set [1], the MIC was over 32 µg/mL. Besides, the MIC in data set [2] is over 32 µg/mL. Also, the MIC in data set [3] was over 32 µg/mL. Moreover, the MIC with Salmorella TA 97 came out at 32 µg/mL (≈ 77.2 µM). In addition, in data set [4], the MIC came out at 4 µg/mL (≈ 9.65 µM). Besides, in [5], the MIC is over 32 µg/mL. In addition, the MIC in [6] was 8 µg/mL (≈ 19.3 µM). Further, the MIC in the data set on Mycobacterium MTCC 006 came to 32 µg/mL (≈ 77.2 µM). For the same compound, the MIC in [7] is 8 µg/mL (≈ 19.3 µM). Further, the MIC in [8] was 2 µg/mL (≈ 4.83 µM). The MIC in [9] is 2 µg/mL (≈ 4.83 µM). The MIC in [10] amounted to 2 µg/mL (≈ 4.83 µM).

The values above are taken from patent US20060293315A1, “Intermediates of novel heterocyclic compounds having antibacterial activity and process for their preparation” (Dr. Reddy's Laboratories Ltd., priority 2001, published 2006).
